Test results: paper PMC4391943, “Novel Epigallocatechin-3-Gallate (EGCG) Derivative as a New Therapeutic Strategy for Reducing Neuropathic Pain after Chronic Constriction Nerve Injury in Mice” (PLoS ONE, 2015)

Tests used:
[1] = system: NMDAR2B; assay: Western blot of phospho-NMDAR2B and total NMDAR2B in the dorsal horn of the spinal cord; type: in vivo, mice; conditions: 50 mg/Kg, 56 dpi
Procedure: (§1) Mice (n = 5 per group) were sacrificed with sodium pentobarbital (90 mg/kg; i.p.) at 14 and 56 dpi and spinal cord segments distal to T12 vertebra were quickly removed and frozen. For total protein extraction, the dorsal horn of the spinal cord was homogenized in modified RIPA buffer (50 mM Tris–HCl pH 7.5, 1% Triton X-100, 0.5% sodium deoxycholate, 0.2% SDS, 100 mM NaCl, 1 mM EDTA, 2 mM PMSF, 1 μg/μL aprotinin, 1 μg/μL leupeptin and 2 mM sodium orthovanadate).
(§2) Western blotting was performed as previously described. The following primary antibodies were used: anti-FASN (1:1000, BD Bioscience, San Jose, CA); anti-TNF-α, anti-IL-1β, anti-IL-6 and anti-NFκB (all 1:500, Santa Cruz Biotechnology, Santa Cruz, CA); anti-phosphoNMDAR2B (Tyr1472) (1:2000, Affinity Bioreagents, Golden, CO) and anti-NMDAR2B (1:1000, Chemicon, Temecula, CA). Loading control was performed by reprobing the membranes with anti-actin (1:10,000; MP Biochemicals, Aurora, OH), anti-NeuN (1:1,000; Chemicon) or anti-N-cadherin (1:1000, BD Bioscience). Membranes were incubated with the corresponding horseradish peroxidase-conjugated antibody (1:2,000; Promega, Madison, WI). Immunoreactive bands were visualized using the Western Blotting Luminol Reagent and quantified by a computer-assisted densitometer (Gel-Pro Analyzer, version 4, Media Cybernetics).

[2] = system: NMDAR2B; assay: Western blot of NMDAR2B in the synaptic plasma membrane fraction of the dorsal horn; type: in vivo, mice; conditions: 50 mg/Kg, 56 dpi
Procedure: Subcellular fractionation was obtained by differential centrifugation as described elsewhere. Briefly, tissue was homogenized in lysis buffer (10 mM Tris-HCl pH 7.5, 1 mM EDTA, 1 mM Na3VO4, 0.25 M sucrose, 2 mM PMSF, 1 μg/μL aprotinin, 1 μg/μL leupeptin, 2 mM sodium orthovanadate). The homogenate was centrifuged at 2,000 × g for 10 min at 4°C to separate the nuclei fraction (P1). The P1 was resuspended in lysis buffer. The resulting supernatant was centrifuged at 10,000×g for 15 min at 4°C to obtain a crude membrane fraction (P2). The P2 was resuspended and incubated in the lysis buffer containing 0.5% Triton X-100 for 15 min, and then centrifuged at 25,000 × g for 20 min to obtain the synaptosomal membrane fraction (P3). Finally, the P3 was resuspended in lysis buffer and centrifuged on a discontinuous sucrose gradient (0.8 M, 1 M and 1.2 M) at 150,000×g for 2 h. Synaptic plasma membrane (SPM) was collected from the 1:1.2 M interface and resuspended in 50 mM HEPES, 2 mM EDTA, 1 mM PMSF, 10 μg/ml aprotinin, 1 μg/ml leupeptin and 2 mM sodium orthovanadate.
as §2

[3] = system: TNF-α, IL-1β and IL-6; assay: Western blot of cytokine protein levels in the dorsal horn of the spinal cord; type: in vivo, mice; conditions: 50 mg/Kg, 14 dpi
Procedure: as §1, §2

[4] = system: CCI-mice; assay: Thermal hyperalgesia (plantar heat / Hargreaves test), paw withdrawal latency after chronic constriction injury; type: in vivo; conditions: for latency to paw withdrawal to a thermal stimulus: mean ± SEM, n = 5; for time-dependent effect on thermal paw withdrawal latency vs vehicle: 50 mg/Kg i.p., assessed weekly from 7 to 56 dpi, n = 15 (Fig 1)
Procedure: The chronic constriction injury (CCI) followed the procedure described elsewhere. Animals were anesthetized with sodium pentobarbital (50 mg/kg; i.p.), an incision was made in the right thigh, and the sciatic nerve was exposed. Two loose ligatures with 1 mm apart were then made around the nerve using the 6–0 poly-glycolic acid synthetic absorbable sutures. The incision was closed using 5–0 interrupted nylon sutures. A control group was included with sham surgery where the right sciatic nerve was exposed but not further manipulated.
For dose response studies, EGCG and the two synthetic EGCG derivatives compound 23 and compound 30 were administered by intra-peritoneal injection at 10, 30, 50 and 100 mg/Kg (n = 5 mice/compound/dose), 30 minutes after the CCI. To analyze the time-dependent effect EGCG and the two synthetic EGCG derivatives compound 23 and compound 30 were administered by intra-peritoneal injection at 50 mg/Kg (n = 15 mice/compound), 30 minutes after the CCI. Another set of animals were used to study the effect of 50 mg/kg of EGCG and the two synthetic EGCG derivatives compound 23 and compound 30 at 14 dpi (n = 15 mice/compound). In all cases, the administration was daily repeated during the first week. All compounds were dissolved in DMSO/saline solution (1:9; v/v), used as vehicle group.
To measure changes in thermal sensation we used the plantar heat test (Ugo Basile, Italy) as previously described. Briefly, mice were acclimated 5 days (15 min/day) prior to CCI. At 7, 14, 21, 28, 35, 42, 49 and 56 dpi, mice were enclosed in a clear Plexiglas box. After 15 min, during which the animals were provided with free exploration to habituate to the apparatus, infrared light beam was applied to the plantar surface of the […], and paw withdrawal latency was recorded in seconds. The infrared stimulus application automatically shut off at 30 seconds to avoid tissue damage. Four trials were measured randomly for right […] with at least 2 minutes between each trial.

[5] = Serum stability study, human serum; type: in vitro ADME; conditions: 37°C, 75% serum, 0.5 mM compound; for half-life at 0.5 mM: human serum (75% final serum content), read-out: half-life (t1/2) (converted)
Procedure: Peptide stabilities were assayed in diluted serum as previously described. Human serum (Sigma, S7023) or mouse serum (Europa Bioproducts, EQSM-0100) were incubated at 37°C for 10 min. The assay was initiated upon the addition of the test compound solved in PBS to the serum (75% final serum content) for a final compound concentration of 0.5 mM. Then, 500 µL aliquots of the incubations were taken for the following time points: 0, 15, 30, 60, 120 and 240 min. The aliquots were mixed with 750 µL of cold acetonitrile (ACN) and incubated at 4°C for 10 min to precipitate serum proteins. The supernatant was collected for each sample after centrifugation at 39,000 g for 10 min and were immediately analyzed by high performance liquid chromatography-mass spectrometry (HPLC-MS).

[6] = system: FASN; assay: Western blot of FASN protein levels in the dorsal horn of the spinal cord; type: in vivo, mice; conditions: 50 mg/Kg, 14 and 56 dpi
Procedure: as §1, §2

[7] = Toxicity studies: body weight, food and fluid intake, histological examination; type: in vivo, mice; conditions: vs control animals (data not shown)
[8] = system: FASN; set-up: method as in PMID 22559865; conditions: previously reported; cited from earlier work
[9] = set-up: method as in PMID 20008854, PMID 22559865, PMID 17902053; conditions: previously published toxicity studies; cited from earlier work
[10] = set-up: method as in PMID 22559865; conditions: daily doses of 5, 25 or 40 mg/Kg; cited from earlier work
[11] = 10 mg/Kg i.p. daily first week post-CCI, 7 dpi
[12] = 10 mg/Kg i.p. daily first week post-CCI, 21 dpi
[13] = 30 mg/Kg i.p. daily first week post-CCI, 7 dpi
[14] = 30 mg/Kg i.p. daily first week post-CCI, 21 dpi
[15] = 50 mg/Kg i.p. daily first week post-CCI, 7 dpi
[16] = 50 mg/Kg i.p. daily first week post-CCI, 21 dpi
[17] = 100 mg/Kg i.p. daily first week post-CCI, 7 dpi
[18] = 100 mg/Kg i.p. daily first week post-CCI, 21 dpi

| half-life at 0.5 mM [5] | Compound | phospho-levels of NMDAR2B compared to vehicle group [1] | protein levels of NMDAR2B in the synaptic plasma membrane (SPM) [2] | protein levels of TNF-α, IL-1β and IL-6 compared to vehicle group [3] | latency to paw withdrawal to a thermal stimulus [4, 11] | latency to paw withdrawal to a thermal stimulus [4, 12] | latency to paw withdrawal to a thermal stimulus [4, 13] | latency to paw withdrawal to a thermal stimulus [4, 14] | latency to paw withdrawal to a thermal stimulus [4, 15] | latency to paw withdrawal to a thermal stimulus [4, 16] | time-dependent effect on thermal paw withdrawal latency vs vehicle [4] | latency to paw withdrawal to a thermal stimulus [4, 17] | latency to paw withdrawal to a thermal stimulus [4, 18] | half-life (t1/2) [5] | effect on FASN protein levels [6] | histological examination of liver, heart, kidney lung and brain [7] | % of FASN inhibition [8] | changes on body weight versus the control group [9] | hepatic, renal and hematological function serum markers vs control [10] |
| --- | --- | --- | --- | --- | --- | --- | --- | --- | --- | --- | --- | --- | --- | --- | --- | --- | --- | --- | --- |
|  | epigallocatechin-3-gallate [EGCG] | did not induce variations | did not result in changes | reduced | 3.93 ± 0.33 s | 3.83 ± 0.23 s | 5.01 ± 0.35 s | 4.28 ± 0.45 s | 13.01 ± 1.02 s | 8.58 ± 0.9 s | increase in paw withdrawal latency in CCI-mice treated with EGCG from 7 to 21 dpi | 9.38 ± 0.66 s | 6.15 ± 0.42 s | < 0,1 h | no effect |  |  |  |  |
| 1.9 h | O=C(Oc1ccc(-c2ccc(OC(=O)c3cc(O)c(O)c(O)c3)cc2)cc1)c1cc(O)c(O)c(O)c1 [Compound 30, 4,4′-Bis [(3,4,5-trihydroxybenzoyl)oxy]-1,1′-biphenyl] | specific decrease | specific decrease | reduced | 3.71 ± 0.39 s | 4.11 ± 0.51 s | 3.93 ± 0.37 s | 4.33 ± 0.57 s | 4.31 ± 0.3 s | 7.61 ± 0.67 s | augmentation in the paw withdrawal latency from 14 to 56 dpi | 4.79 ± 0.44 s | 6.49 ± 0.53 s |  | no effect | no microscopic evidence of drug induces toxicity | 90% | neither 23 nor 30 caused changes on body weight |  |
| 1.4 h | O=C(Oc1cccc2c(OC(=O)c3cc(O)c(O)c(O)c3)cccc12)c1cc(O)c(O)c(O)c1 [Compound 23, 1,5-Bis [(3,4,5-trihydroxybenzoyl)oxy] naphthalene] | did not induce variations | did not result in changes |  | 4.07 ± 0.31 s | 3.89 ± 0.43 s | 4.57 ± 0.29 s | 3.77 ± 0.59 s | 4.38 ± 0.3 s | 3.93 ± 0.24 s | did not detect differences at any time point analyzed | 4.41 ± 0.27 s | 3.71 ± 0.29 s |  | no effect | no microscopic evidence of drug induces toxicity | 30% | neither 23 nor 30 caused changes on body weight | no significant alteration |
